Measured values published in PubChem BioAssay AID2060486 (Molecular Pharmacology Branch, DTP, NCI, 2025).

Test system: IGROV1 complex spheroids (HUVEC, MSC), viability % test/control
Assay: Anticancer human tumor IGROV1 cell line growth inhibition [GQUAD];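 note: spheroids exposed to compounds for 7 days before readout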;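 for viability, T/C: 100% = DMSO vehicle control viability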
Settings: for IC50: curve of first compound; for viability, T/C: stronger effect = lower value
In short: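 Viability of tumor cells grown as complex spheroids with endothelial and stromal cells, exposed to drug combinations. Top concentration at or near clinical Cmax (else 10 microM), diluted in half-log increments.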

[1] = second compound 0.0316 µM, first compound 0.0316 µM
[2] = second compound 0.0316 µM, first compound 0.1 µM
[3] = second compound 0.0316 µM, first compound 0.316 µM
[4] = second compound 0.0316 µM, first compound 1 µM
[5] = second compound 0.0316 µM, first compound 3.16 µM
[6] = second compound 0.0316 µM, first compound 10 µM
[7] = second compound 0.1 µM, first compound 0.0316 µM
[8] = second compound 0.1 µM, first compound 0.1 µM
[9] = second compound 0.1 µM, first compound 0.316 µM
[10] = second compound 0.1 µM, first compound 1 µM
[11] = second compound 0.1 µM, first compound 3.16 µM
[12] = second compound 0.1 µM, first compound 10 µM
[13] = second compound 0.316 µM, first compound 0.0316 µM
[14] = second compound 0.316 µM, first compound 0.1 µM
[15] = second compound 0.316 µM, first compound 0.316 µM
[16] = second compound 0.316 µM, first compound 1 µM
[17] = second compound 0.316 µM, first compound 3.16 µM
[18] = second compound 0.316 µM, first compound 10 µM
[19] = second compound 1 µM, first compound 0.0316 µM
[20] = second compound 1 µM, first compound 0.1 µM
[21] = second compound 1 µM, first compound 0.316 µM
[22] = second compound 1 µM, first compound 1 µM
[23] = second compound 1 µM, first compound 3.16 µM
[24] = second compound 1 µM, first compound 10 µM
[25] = second compound 3.16 µM, first compound 0.0316 µM
[26] = second compound 3.16 µM, first compound 0.1 µM
[27] = second compound 3.16 µM, first compound 0.316 µM
[28] = second compound 3.16 µM, first compound 1 µM
[29] = second compound 3.16 µM, first compound 3.16 µM
[30] = second compound 3.16 µM, first compound 10 µM
[31] = second compound 10 µM, first compound 0.0316 µM
[32] = second compound 10 µM, first compound 0.1 µM
[33] = second compound 10 µM, first compound 0.316 µM
[34] = second compound 10 µM, first compound 1 µM
[35] = second compound 10 µM, first compound 3.16 µM
[36] = second compound 10 µM, first compound 10 µM

`CC(C)n1c(=O)n(C)c2cnc3cc(F)c(-c4ccc(OCCCN5CCCCC5)nc4)cc3c21` + Cc1cnc(CNC(=O)c2c(=O)c3ccc(N4CCCN(C)CC4)nc3n3c2sc2ccccc23)cn1 was tested, and the IC50 (second compound 0.0316 µM) was under 0.0316 µM, the IC50 (second compound 0.1 µM) was under 0.0316 µM and the IC50 (second compound 0.316 µM) was under 0.0316 µM. The IC50 (second compound 1 µM) was under 0.0316 µM, the IC50 (second compound 3.16 µM) was under 0.0316 µM and the IC50 (second compound 10 µM) was under 0.0316 µM. For the same compound, the viability, T/C [1] was 13.7%, the viability, T/C [2] was 11.3% and the viability, T/C [3] was 10.6%. For the same compound, the viability, T/C [4] was 11.4%, the viability, T/C [5] was 10.2% and the viability, T/C [6] was 11.2%. It also gave a viability, T/C [7] of 12.4%, a viability, T/C [8] of 12.1% and a viability, T/C [9] of 12.4%. For the same compound, the viability, T/C [10] was 10.7%, the viability, T/C [11] was 11.3% and the viability, T/C [12] was 7.45%. For the same compound, the viability, T/C [13] was 15.1%, the viability, T/C [14] was 11.4% and the viability, T/C [15] was 11.7%. The viability, T/C [16] was 11.4%, the viability, T/C [17] was 9.7% and the viability, T/C [18] was 8.1%. For the same compound, the viability, T/C [19] was 13%, the viability, T/C [20] was 12.8% and the viability, T/C [21] was 9.09%. For the same compound, the viability, T/C [22] was 9.18%, the viability, T/C [23] was 9.72% and the viability, T/C [24] was 7.74%. The viability, T/C [25] was 8.77%, the viability, T/C [26] was 9.43% and the viability, T/C [27] was 9.15%. It also gave a viability, T/C [28] of 11.1%, a viability, T/C [29] of 10.6% and a viability, T/C [30] of 6.66%. For the same compound, the viability, T/C [31] was 12.3%, the viability, T/C [32] was 7.9% and the viability, T/C [33] was 9.45%. It also gave a viability, T/C [34] of 9.57%, a viability, T/C [35] of 8.82% and a viability, T/C [36] of 9.01%.

Compound `CC1COCCN1c1cc(C2(O)CC3CCC(C2)O3)c2cnn(-c3ccn[nH]3)c2n1` (stereo not drawn) + Cc1cnc(CNC(=O)c2c(=O)c3ccc(N4CCCN(C)CC4)nc3n3c2sc2ccccc23)cn1 has an IC50 (second compound 0.0316 µM) of under 0.0316 µM, an IC50 (second compound 0.1 µM) of under 0.0316 µM and an IC50 (second compound 0.316 µM) of under 0.0316 µM. It also gave an IC50 (second compound 1 µM) of under 0.0316 µM, an IC50 (second compound 3.16 µM) of under 0.0316 µM and an IC50 (second compound 10 µM) of under 0.0316 µM. For the same compound, the viability, T/C [1] was 13.8%, the viability, T/C [2] was 8.52% and the viability, T/C [3] was 5.86%. For the same compound, the viability, T/C [4] was 3.91%, the viability, T/C [5] was 3.41% and the viability, T/C [6] was 2.21%. The viability, T/C [7] was 10.6%, the viability, T/C [8] was 7.17% and the viability, T/C [9] was 5.58%. It also gave a viability, T/C [10] of 4.56%, a viability, T/C [11] of 3.63% and a viability, T/C [12] of 2.02%. For the same compound, the viability, T/C [13] was 8.26%, the viability, T/C [14] was 6.06% and the viability, T/C [15] was 5.61%. It also gave a viability, T/C [16] of 4.38%, a viability, T/C [17] of 2.92% and a viability, T/C [18] of 2.02%. The viability, T/C [19] was 5.97%, the viability, T/C [20] was 6.1% and the viability, T/C [21] was 5.48%. The viability, T/C [22] was 3.78%, the viability, T/C [23] was 3.09% and the viability, T/C [24] was 1.97%. For the same compound, the viability, T/C [25] was 5.79%, the viability, T/C [26] was 6.38% and the viability, T/C [27] was 5%. It also gave a viability, T/C [28] of 2.96%, a viability, T/C [29] of 2.76% and a viability, T/C [30] of 1.84%. For the same compound, the viability, T/C [31] was 5.85%, the viability, T/C [32] was 5.61% and the viability, T/C [33] was 4.3%. For the same compound, the viability, T/C [34] was 4.69%, the viability, T/C [35] was 3.15% and the viability, T/C [36] was 1.81%.

Compound `COc1ccc([C@@H](O)c2cc(-c3ncnc4cc(N5CCOCC5)ccc34)c(F)cc2Cl)nn1` + Cc1cnc(CNC(=O)c2c(=O)c3ccc(N4CCCN(C)CC4)nc3n3c2sc2ccccc23)cn1 has an IC50 (second compound 0.0316 µM) of 0.197 µM, an IC50 (second compound 0.1 µM) of under 0.0316 µM and an IC50 (second compound 0.316 µM) of under 0.0316 µM. The IC50 (second compound 1 µM) was under 0.0316 µM, the IC50 (second compound 3.16 µM) was under 0.0316 µM and the IC50 (second compound 10 µM) was under 0.0316 µM. For the same compound, the viability, T/C [1] was 62.4%, the viability, T/C [2] was 64.7% and the viability, T/C [3] was 40.7%. For the same compound, the viability, T/C [4] was 11.1%, the viability, T/C [5] was 5.18% and the viability, T/C [6] was 5.46%. The viability, T/C [7] was 30.9%, the viability, T/C [8] was 34.5% and the viability, T/C [9] was 18.7%. It also gave a viability, T/C [10] of 7.37%, a viability, T/C [11] of 4.79% and a viability, T/C [12] of 3.15%. For the same compound, the viability, T/C [13] was 25.7%, the viability, T/C [14] was 25.2% and the viability, T/C [15] was 14.1%. The viability, T/C [16] was 6.16%, the viability, T/C [17] was 4.16% and the viability, T/C [18] was 3.4%. It also gave a viability, T/C [19] of 19.7%, a viability, T/C [20] of 17.8% and a viability, T/C [21] of 16.1%. It also gave a viability, T/C [22] of 6.86%, a viability, T/C [23] of 4.58% and a viability, T/C [24] of 2.36%. For the same compound, the viability, T/C [25] was 12%, the viability, T/C [26] was 9.89% and the viability, T/C [27] was 8.1%. For the same compound, the viability, T/C [28] was 4.31%, the viability, T/C [29] was 3.47% and the viability, T/C [30] was 1.18%. It also gave a viability, T/C [31] of 9.31%, a viability, T/C [32] of 9.19% and a viability, T/C [33] of 9.26%. The viability, T/C [34] was 4.56%, the viability, T/C [35] was 2.94% and the viability, T/C [36] was 1.32%.

In the case of `O=C(c1cc(Cc2n[nH]c(=O)c3ccccc23)ccc1F)N1CCN(C(=O)C2CC2)CC1` + Cc1cnc(CNC(=O)c2c(=O)c3ccc(N4CCCN(C)CC4)nc3n3c2sc2ccccc23)cn1, the IC50 (second compound 0.0316 µM) is reported as 1.61 µM, the IC50 (second compound 0.1 µM) is reported as under 0.0316 µM and the IC50 (second compound 0.316 µM) is reported as under 0.0316 µM. It also gave an IC50 (second compound 1 µM) of under 0.0316 µM, an IC50 (second compound 3.16 µM) of under 0.0316 µM and an IC50 (second compound 10 µM) of under 0.0316 µM. For the same compound, the viability, T/C [1] was 58.6%, the viability, T/C [2] was 73% and the viability, T/C [3] was 53.6%. The viability, T/C [4] was 55.8%, the viability, T/C [5] was 43.5% and the viability, T/C [6] was 20.8%. It also gave a viability, T/C [7] of 42.1%, a viability, T/C [8] of 39.9% and a viability, T/C [9] of 34%. The viability, T/C [10] was 27.9%, the viability, T/C [11] was 24.2% and the viability, T/C [12] was 17.8%. It also gave a viability, T/C [13] of 22.4%, a viability, T/C [14] of 27.7% and a viability, T/C [15] of 24%. The viability, T/C [16] was 23.5%, the viability, T/C [17] was 16.9% and the viability, T/C [18] was 18.1%. For the same compound, the viability, T/C [19] was 14.4%, the viability, T/C [20] was 17.3% and the viability, T/C [21] was 18.9%. For the same compound, the viability, T/C [22] was 16.9%, the viability, T/C [23] was 16% and the viability, T/C [24] was 12.9%. For the same compound, the viability, T/C [25] was 9.91%, the viability, T/C [26] was 10.6% and the viability, T/C [27] was 10.1%. It also gave a viability, T/C [28] of 10.6%, a viability, T/C [29] of 11.1% and a viability, T/C [30] of 10.5%. It also gave a viability, T/C [31] of 8.62%, a viability, T/C [32] of 11.4% and a viability, T/C [33] of 9.01%. For the same compound, the viability, T/C [34] was 8.13%, the viability, T/C [35] was 9.75% and the viability, T/C [36] was 9.07%.
